The text below walks through data of US10124012B2, “Method for treatment of hyperglycemia and hyperlipidemia” (priority 2016, dated 2018).

What all share (type): in vivo, C57BL/6J mice
The test system of test [1] is DGAT2. The test can be described thus: Liver mRNA by semi-quantitative RT-PCR: DGAT2. The following applies: HFD-fed mice, oral gavage once daily 4 weeks, AnK 10, 20, 40, Feno 250, Metf 300 mg/kg/day, vs HF group. From the text:
(§1) The 4-week old male C57BL/6J mice (total amount n=63) were obtained from the National Laboratory Animal Center (Taipei, Taiwan). After acclimatization for one week, all of the mice were randomly assigned into a control (CON) group and a high-fat diet (HFD) group. […] After HFD feeding for 8 weeks, the HFD group was randomly subdivided into six groups (n=9 per group) receiving different treatments and fed on HFD. […] The HF+AnK1, HF+AnK2, and HF+AnK3 groups are collectively termed AnK-treated HFD groups in the following examples. The CON mice were administered vehicle. All treatments were administered via oral gavage once daily. After administration for 4 weeks, all mice were fasted 12 hours, and blood was collected from the retro-orbital sinus under ether anesthesia. […]
(§2) Total RNA from liver tissue of mice was isolated with a Trizol Reagent (Molecular Research Center, Inc., Cincinnati, Ohio, USA) according to the manufacturer's instructions. The integrity of the extracted total RNA was examined by 2% agarose gel electrophoresis, and the RNA concentration was determined by the ultraviolet (UV) light absorbency at 260 nm and 280 nm (Spectrophotometer U-2800A, Hitachi). […]
(§3) Levels of mRNA of target genes were quantified by semi-quantitative reverse transcription polymerase chain reaction (RT-PCR). […] PCR products were analyzed by 2% agarose gel and stained with ethidium bromide.

Test [2] relates to apoCIII. The experiment in a line: Liver mRNA by semi-quantitative RT-PCR: apoCIII. Particulars: HFD-fed mice, oral gavage once daily 4 weeks, AnK 10, 20, 40, Feno 250, Metf 300 mg/kg/day, vs HF group.
Text: as §1, §2, §3

Test [3] relates to PPARα. The test can be described thus: Western blotting of hepatic PPARα. Particulars: liver; HFD-fed mice; AnK 10, 20, 40, Feno 250, Metf 300 mg/kg/day; vs HF group.
Text: as §1, with “anesthesia. At the end of the experiment, the mice were sacrificed via carbon dioxide inhalation.” for “anesthesia.”
About 0.1 g of liver tissue, skeletal muscle, or adipose tissue was used for the homogenate samples. […] The protein concentration in supernatant was determined with a BCA protein assay kit (Thermo Scientific, Rockford, Ill., USA). […] Immunoreactive bands were detected with ECL reagent kit (GE Healthcare BioSciences, Buckinghamshire, UK). The intensity of Western blot signals was analyzed using AlphaEase FC software (Alpha Innotech Corporation, Randburg, South Africa). […]

Test [4] concerns FAS. The experiment in a line: Western blotting of FAS in liver and adipose tissue. The following applies: HFD-fed mice, AnK 10, 20, 40, Feno 250, Metf 300 mg/kg/day, vs HF group; for expression levels of FAS (protein): adipose tissue; for FAS expression levels (protein): liver. From the text:
The 4-week old male C57BL/6J mice (total amount n=63) were obtained from the National Laboratory Animal Center (Taipei, Taiwan). After acclimatization for one week, all of the mice were randomly assigned into a control (CON) group and a high-fat diet (HFD) group. […] After HFD feeding for 8 weeks, the HFD group was randomly subdivided into six groups (n=9 per group) receiving different treatments and fed on HFD. […] The HF+AnK1, HF+AnK2, and HF+AnK3 groups are collectively termed AnK-treated HFD groups in the following examples. The CON mice were administered vehicle. All treatments were administered via oral gavage once daily. After administration for 4 weeks, all mice were fasted 12 hours, and blood was collected from the retro-orbital sinus under ether anesthesia. At the end of the experiment, the mice were sacrificed via carbon dioxide inhalation. Liver, adipose tissue, and skeletal muscle were collected and immediately stored at −80° C. for target gene analysis.
About 0.1 g of liver tissue, skeletal muscle, or adipose tissue was used for the homogenate samples. Samples were powdered under liquid nitrogen and homogenized for 20 seconds in 500 μL buffer containing 20 mM Tris-HCl (pH 7.4 at 4° C.), 2% SDS, 5 mM EDTA, 5 mM EGTA, 1 mM dithiothreitol (DTT), 100 mM NaF, 2 mM sodium vanadate, 0.5 mM phenylmethylsulfonyl fluoride, 10 μg/mL leupeptin, and 10 μL/mL pepstatin. The total membrane fraction was used for measurement. The protein concentration in supernatant was determined with a BCA protein assay kit (Thermo Scientific, Rockford, Ill., USA). […] The membrane was blocked with 5% slim milk in Tris-buffered saline (TBS)(Amersham BioSciences, Uppsala, Sweden) containing 0.05% Tween-20 (Bio Rad, CA, USA) and incubated overnight at 4° C. with antibodies at 1:200 dilution. Subsequently, the membrane was washed three times with TBS containing 0.05% Tween-20 and incubated with secondary antibody anti-rabbit (1:1000)(Jackson ImmunoResearch Laboratories, Inc., PA, USA) for 1 hour. Immunoreactive bands were detected with ECL reagent kit (GE Healthcare BioSciences, Buckinghamshire, UK). The intensity of Western blot signals was analyzed using AlphaEase FC software (Alpha Innotech Corporation, Randburg, South Africa). The structural protein GAPDH in the samples was used as the loading control.

For `CN(C)C(=N)N=C(N)N` [Metf, metformin, reference compound], the “mRNA levels of DGAT2” value in test [1] is listed as “significantly decreased”. For the same compound, in test [2], the “mRNA levels of apoCIII” value is on record as “significantly decreased”. The “PPARα expression levels (protein)” value in test [3] was “significantly increased”. In addition, in test [4], the “expression levels of FAS (protein)” value is on record as “significantly reduced” and the “FAS expression levels (protein)” value is on record as “decreased”.

For `C=C(CC[C@@H](C)[C@H]1CC[C@H]2C3=C(C(=O)C[C@]12C)[C@@]1(C)CC[C@@H](O)[C@](C)(O)[C@@H]1C[C@@H]3O)C(C)C(=O)O` (stereo partly drawn) [AnK, 3α,4β,7β-trihydroxy-4α-methylergosta-8,24(28)-dien-11-on-25S-26-oic acid], in test [1], the “mRNA levels of DGAT2” value is given as “significantly decreased”. In addition, in test [2], the “mRNA levels of apoCIII” value is given as “significantly decreased”. Moreover, the “PPARα expression levels (protein)” value in test [3] is “significantly increased”. In test [4], the “expression levels of FAS (protein)” value is reported as “significantly reduced” and the “FAS expression levels (protein)” value is listed as “decreased”.
